Measurements as given in ChEMBL document CHEMBL1614632, “Trend analysis of a database of intravenous pharmacokinetic parameters in humans for 670 drug compounds” (Drug Metab Dispos, 2008).

Columns and labels:
clinical [1] = conditions: human, in vivo, iv, Vdss
clinical [2] = conditions: human, in vivo, iv
clinical [3] = conditions: human, in vivo, iv; remark: listed apart in the source
clinical [4] = conditions: human, in vivo, iv, t1/2
clinical [5] = conditions: human, in vivo, iv, CL

| SMILES | Vd (clinical [1]) | MRT (clinical [2]) | fraction unbound (clinical [3]) | half-life (clinical [4]) | clearance (clinical [5]) |
| --- | --- | --- | --- | --- | --- |
| C[C@H](Cn1cnc2c(N)ncnc21)OCP(=O)(O)O [TENOFOVIR ANHYDROUS] | 0.83 L/kg | 3.8 h | 0.93 | 5.8 h | 3.1 mL/min/kg |
| O=C1CCC(N2C(=O)c3ccccc3C2=O)C(=O)N1 (stereo not given) [THALIDOMIDE] | 0.95 L/kg | 4.3 h | 0.4 | 4.7 h | 3.4 mL/min/kg |
| CCCC(C)C1(CC)C(=O)NC(=S)NC1=O (stereo not given) [THIOPENTAL] | 1.2 L/kg | 2.4 h | 0.14 | 2 h | 8.2 mL/min/kg |
| CC1(C)S[C@@H]2[C@H](NC(=O)[C@H](C(=O)O)c3ccsc3)C(=O)N2[C@H]1C(=O)O [TICARCILLIN] | 0.16 L/kg | 1.5 h | 0.55 | 1 h | 1.8 mL/min/kg |
| CN(C)c1cc(NC(=O)CNC(C)(C)C)c(O)c2c1C[C@H]1C[C@H]3[C@H](N(C)C)C(O)=C(C(N)=O)C(=O)[C@@]3(O)C(O)=C1C2=O [TIGECYCLINE] | 12 L/kg | 53 h | 0.2 | 48 h | 3.8 mL/min/kg |
| CCOC(=O)C1(c2ccccc2)CCC=CC1N(C)C (stereo not given) [TILIDINE] | 4 L/kg | 4.2 h | 0.21 | 5 h | 16 mL/min/kg |
| NC[C@H]1O[C@H](O[C@H]2[C@H](O)[C@@H](O[C@H]3O[C@H](CO)[C@@H](O)[C@H](N)[C@H]3O)[C@H](N)C[C@@H]2N)[C@H](N)C[C@@H]1O [TOBRAMYCIN] | 0.23 L/kg | 2.4 h | 1 | 2 h | 1.6 mL/min/kg |
| Cc1ccccc1OCC(O)CNCCOc1ccc(C(N)=O)cc1 (stereo not given) [TOLAMOLOL] | 4 L/kg | 4.8 h | 0.089 | 2.5 h | 14 mL/min/kg |
| Cc1ccc(C(=O)c2cc(O)c(O)c([N+](=O)[O-])c2)cc1 [TOLCAPONE] | 0.12 L/kg | 1.1 h | 0.0012 | 1.1 h | 1.9 mL/min/kg |
| Cc1cccc(N2CC(CO)OC2=O)c1 (stereo not given) [TOLOXATONE] | 1.5 L/kg | 2.3 h | 0.49 | 1.6 h | 11 mL/min/kg |
| C[C@@H](O)[C@H]1C(=O)N2C(C(=O)O)=C(S[C@H]3C[C@@H](C(=O)N4CC[C@H](NC(=O)CNC(=N)N)C4)N(C)C3)[C@H](C)[C@H]12 [TOMOPENEM] | 0.23 L/kg | 2 h | 0.91 | 1.7 h | 1.9 mL/min/kg |
| C[C@@H]([C@@H](O)c1ccc(O)cc1)N1CCC(O)(c2ccccc2)CC1 [TRAXOPRODIL] | 4.4 L/kg | 2.6 h | 0.63 | 3.7 h | 27 mL/min/kg |
| CC1(C)O[C@@H]2C[C@H]3[C@@H]4CCC5=CC(=O)C=C[C@]5(C)[C@@]4(F)[C@@H](O)C[C@]3(C)[C@]2(C(=O)CO)O1 [TRIAMCINOLONE ACETONIDE] | 1.4 L/kg | 2.5 h | 0.2 | 2.4 h | 9.4 mL/min/kg |
| COc1cc(NCc2ccc3nc(N)nc(N)c3c2C)cc(OC)c1OC [TRIMETREXATE] | 0.77 L/kg | 17 h | 0.05 | 17 h | 0.77 mL/min/kg |
| CC(CN(C)C)CN1c2ccccc2CCc2ccccc21 (stereo not given) [TRIMIPRAMINE] | 16 L/kg | 17 h | 0.051 | 23 h | 16 mL/min/kg |
| C/C=C/C[C@@H](C)C(=O)[C@H]1C(=O)N[C@@H](C(C)C)C(=O)N(C)CC(=O)N(C)[C@@H](CC(C)C)C(=O)N[C@@H](C(C)C)C(=O)N(C)[C@@H](CC(C)C)C(=O)N[C@@H](C)C(=O)N[C@H](C)C(=O)N(C)[C@@H](CC(C)C)C(=O)N(C)[C@@H](CC(C)C)C(=O)N(C)[C@@H](C(C)C)C(=O)N1C [VALSPODAR] | 1.8 L/kg | 12 h | 0.022 | 10 h | 2.6 mL/min/kg |
| CC(=O)O[C@H]1C[C@@H]2CC[C@@H]3[C@H](CC[C@@]4(C)[C@H]3C[C@H]([N+]3(C)CCCCC3)[C@@H]4OC(C)=O)[C@@]2(C)C[C@@H]1N1CCCCC1.[Br-] [VECURONIUM BROMIDE] | 0.3 L/kg | 1.1 h | 0.25 | 1.4 h | 4.5 mL/min/kg |
| O.O=P(O)(O)C(O)(Cn1ccnc1)P(=O)(O)O [ZOLEDRONIC ACID] | 0.6 L/kg | 4.5 h | 0.78 | 11 h | 2.2 mL/min/kg |
